Test results reported in the supplement of paper PMC10307832.

Columns and labels:
Assay in all cases: relative viability (nuclei count vs DMSO), 5 days (fraction); higher = more cells survive
[1] = compound: C[C@@]1(C(=O)Nc2ccc(F)nc2)CCCN1c1nc(Nc2cc(C3CC3)n[nH]2)c2cccn2n1 + CCNC(=O)c1noc(-c2cc(C(C)C)c(O)cc2O)c1-c1ccc(CN2CCOCC2)cc1 [Luminespib] (partner 0.01 µM)
Outline: (§1)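 Relative viability was taken as the ratio of nuclei in treated wells to nuclei in vehicle wells. Lung cancer cell lines in 1536-well plates received compounds by pin tool one day after seeding, either one drug alone or a fixed anchor-drug dose plus five library-drug doses (not always all listed) in √10 steps. Nuclei were counted on 4× images after 5 days of treatment, and values are medians of duplicate plates.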

[2] = compound: CC1(C)CNc2cc(NC(=O)c3cccnc3NCc3ccncc3)ccc21 [Motesanib] + COc1cccc2cc(-c3nc([C@H]4CC[C@H](C(=O)O)CC4)n4ncnc(N)c34)[nH]c12 [OSI-027] (partner 0.5 µM)
Outline: as §1

[3] = compound: C[C@@]1(C(=O)Nc2ccc(F)nc2)CCCN1c1nc(Nc2cc(C3CC3)n[nH]2)c2cccn2n1 + NC(=O)Nc1cc(-c2cccc(F)c2)sc1C(=O)N[C@H]1CCCNC1 [AZD7762] (partner 0.2 µM)
Outline: as §1

[4] = compound: C[C@@]1(C(=O)Nc2ccc(F)nc2)CCCN1c1nc(Nc2cc(C3CC3)n[nH]2)c2cccn2n1 + CS(=O)(=O)CCNCc1ccc(-c2ccc3ncnc(Nc4ccc(OCc5cccc(F)c5)c(Cl)c4)c3c2)o1 [Lapatinib] (partner 2 µM)
Outline: as §1

| Cell Line | relative viability ([1]; first compound 0.04 µM) | relative viability ([1]; first compound 0.1265 µM) | relative viability ([1]; first compound 0.4 µM) | relative viability ([1]; first compound 1.265 µM) | relative viability ([2]; first compound 0.03162 µM) | relative viability ([2]; first compound 0.1 µM) | relative viability ([2]; first compound 0.3162 µM) | relative viability ([2]; first compound 1 µM) | relative viability ([3]; first compound 0.04 µM) | relative viability ([3]; first compound 0.1265 µM) | relative viability ([3]; first compound 0.4 µM) | relative viability ([3]; first compound 1.265 µM) | relative viability ([4]; first compound 0.04 µM) | relative viability ([4]; first compound 0.1265 µM) | relative viability ([4]; first compound 0.4 µM) | relative viability ([4]; first compound 1.265 µM) | relative viability ([2]; first compound 0.01 µM) |
| --- | --- | --- | --- | --- | --- | --- | --- | --- | --- | --- | --- | --- | --- | --- | --- | --- | --- |
| NCI-H1792 | 0.344 | 0.653 | 0.243 | 0.292 | 0.65 | 0.723 | 0.824 | 0.651 | 0.446 | 0.277 | 0.332 | 0.323 | 0.82 | 0.412 | 0.546 | 0.696 | – |
| NCI-H1793 | 0.581 | 0.18 | – | 0.604 | 0.272 | 0.261 | 0.284 | 0.302 | 0.463 | 0.501 | 0.393 | 0.456 | 0.801 | 0.469 | 0.568 | 0.53 | 0.26 |
| NCI-H1915 | 0.816 | 0.736 | 0.781 | 0.862 | 0.72 | 0.625 | 0.631 | 0.632 | 0.728 | 0.731 | 0.663 | 0.701 | 0.964 | 0.999 | 1.01 | 0.994 | 0.575 |
| NCI-H1944 | 0.562 | 0.652 | 0.399 | 0.586 | 0.424 | 0.438 | 0.475 | 0.427 | 0.53 | 0.497 | 0.419 | 0.354 | 0.679 | 0.536 | 0.426 | 0.582 | 0.37 |
| NCI-H1975 | 0.272 | 0.117 | 0.128 | 0.187 | 0.702 | 0.747 | 0.677 | 0.669 | 0.64 | 0.98 | 0.498 | 0.532 | 0.844 | 0.88 | 0.601 | 0.594 | 0.66 |
| NCI-H1993 | 0.535 | 0.476 | 0.275 | 0.555 | 0.554 | 0.552 | 0.543 | 0.557 | 0.495 | 0.496 | 0.455 | 0.567 | 0.797 | – | 0.663 | 0.592 | 0.526 |
| NCI-H2085 | 0.431 | 0.405 | 0.365 | 0.54 | 0.892 | 0.753 | 0.67 | 0.691 | 1.12 | 0.948 | 0.927 | 0.913 | 0.808 | 0.639 | 0.661 | 0.62 | 0.812 |
| NCI-H2087 | 0.122 | 0.175 | 0.123 | 0.145 | 0.544 | 0.585 | 0.705 | 0.573 | 1.26 | 1.25 | 1.09 | 1.23 | 1.09 | 0.958 | 0.88 | 0.945 | 0.427 |
| NCI-H2126 | 0.733 | 0.429 | 0.542 | 0.52 | 0.737 | 0.674 | 0.774 | 0.781 | 0.993 | 0.716 | 0.569 | 0.648 | 0.693 | 0.454 | 0.376 | 0.399 | 0.815 |
| NCI-H2170 | 0.521 | 0.505 | 0.45 | 0.521 | 0.687 | 0.748 | 0.718 | 0.775 | 0.836 | 0.864 | 0.744 | 0.791 | 0.245 | 0.258 | 0.283 | 0.271 | 0.686 |
| NCI-H2347 | 0.706 | 0.448 | 0.206 | 0.288 | 0.364 | 0.357 | 0.51 | 0.493 | 0.68 | 0.765 | 0.731 | 0.672 | 0.955 | 0.874 | 0.842 | 0.959 | 0.411 |
| NCI-H2405 | 0.549 | 0.489 | 0.374 | 0.432 | 0.59 | 0.683 | 0.663 | 0.719 | 0.619 | 0.483 | 0.472 | 0.313 | 0.762 | 0.706 | 0.76 | 0.744 | – |
| NCI-H3122 | 0.0763 | 0.0863 | 0.0793 | 0.0682 | 0.962 | 0.933 | 1.08 | 1.23 | 0.79 | 0.88 | 0.651 | 0.831 | 0.94 | 1.03 | 0.958 | 1.03 | 0.836 |
| PC-3 [JPC-3] | 0.642 | 0.646 | 0.561 | 0.8 | 0.737 | 0.784 | 0.759 | 0.86 | 0.7 | 0.689 | 0.551 | 0.415 | 0.457 | 0.403 | 0.382 | 0.398 | 0.8 |
| PC-14 | 0.164 | – | 0.12 | 0.175 | 1.01 | 0.704 | 0.844 | 0.849 | 0.391 | 0.394 | 0.308 | 0.348 | 0.329 | 0.282 | 0.264 | 0.271 | 0.868 |
| RERF-LC-KJ | 1.15 | 0.964 | 1.09 | 0.717 | 0.565 | 0.582 | 0.59 | 0.593 | 0.976 | 0.688 | 0.737 | 0.723 | 0.793 | 0.715 | 0.692 | 0.696 | 0.637 |
